In one test the target is T1, human KDR kinase (Homo sapiens, UniProt P35968).
T1 construct: purchased Carna 08-191
In words: KDR Kinase Assay (LanthaScreen TR-FRET enzymatic assay). It is filed as biochemical. As to conditions: 1.2 nM KDR, 92 μM ATP. As to the method: Compounds were tested in a LanthaScreen™ time-resolved fluorescence energy transfer (TR-FRET) enzymatic assay from Invitrogen. The assay used human KDR kinase (Carna 08-191). Test compounds were prepared and diluted in DMSO in 3-fold serial dilutions to 50× of the final testing concentrations. The compounds were then further diluted to 5× by the kinase reaction buffer (50 mM HEPES pH 7.5, 0.0015% Brij-35). The enzymatic reaction for compound testing was performed in a white 384-well polypropylene plate (Corning 3573) with a total reaction volume of 25 μl containing 1.2 nM KDR, 3 μM peptide substrate FAM-P22 (GL Biochem 112393), and 92 μM ATP (Sigma A7699-1G). The assay started with loading RET diluted in kinase reaction buffer to wells, followed by addition of equal volume of 5× compounds for 15-min incubation at the room temperature for pre-treatment. The enzymatic reaction was initiated by addition of mixture of the substrate and ATP prepared in kinase reaction buffer. After incubation at 28° C. for one hour, 25 μl of stopper buffer (a mixture of 100 mM HEPES pH 7.5 buffer, 0.015% Brij-35, 50 mM EDTA and 0.2% of coating reagent 3 (Cliper Lifesciences)) and produce TR-FRET signals. After 30 minutes of incubation at room temperature, the plate was read in a Caliper with the following settings: Excitation 340 nm (30)/Emission1 495 nm (10)/Emission2 520 nm (25). The TR-FRET values were dimensionless numbers that were calculated as the ratio of the acceptor ([…]) signal to the donor (Terbium) signal. Percent of control was calculated as the percentage of compound-treated vs 1% DMSO vehicle-treated. The dose-response curves were generated and the IC50s were calculated by nonlinear sigmoid curve fitting using XLFit.
(Time-resolved FRET reads energy transfer from a long-lived donor to a nearby acceptor.)

For another test, the target named is T2, human RET kinase (Homo sapiens, UniProt P07949).
T2 construct: purchased Carna 08-159
In words: RET Kinase Assay (LanthaScreen TR-FRET enzymatic assay). It is filed as biochemical. The note with it: 7 nM RET, 23 μM ATP. As to the method:
Compounds were tested in a LanthaScreen™ time-resolved fluorescence energy transfer (TR-FRET) enzymatic assay from Invitrogen. The assay used human RET kinase (Carna 08-159). Test compounds were prepared and diluted in DMSO in 3-fold serial dilutions to 50× of the final testing concentrations. The compounds were then further diluted to 5× by the kinase reaction buffer (50 mM HEPES pH 7.5, 0.0015% Brij-35). The enzymatic reaction for compound testing was performed in a white 384-well polypropylene plate (Corning 3573) with a total reaction volume of 25 μl containing 7 nM RET, 3 μM peptide substrate FAM-P2 (GL Biochem 112394), and 23 μM ATP (Sigma A7699-1G). The assay started with loading RET diluted in kinase reaction buffer to wells, followed by addition of equal volume of 5× compounds for 15-min incubation at the room temperature for pre-treatment. The enzymatic reaction was initiated by addition of mixture of the substrate and ATP prepared in kinase reaction buffer. After incubation at 28° C. for one hour, 25 μl of stopper buffer (a mixture of 100 mM HEPES pH 7.5 buffer, 0.015% Brij-35, 50 mM EDTA and 0.2% of coating reagent 3 (Cliper Lifesciences)) and produce TR-FRET signals. After 30 minutes of incubation at room temperature, the plate was read in a Caliper with the following settings: Excitation 340 nm (30)/Emission1 495 nm (10)/Emission2 520 nm (25). The TR-FRET values were dimensionless numbers that were calculated as the ratio of the acceptor ([…]) signal to the donor (Terbium) signal. Percent of control was calculated as the percentage of compound-treated vs 1% DMSO vehicle-treated. The dose-response curves were generated and the IC50s were calculated by nonlinear sigmoid curve fitting using XLFit.

T1 sequence (P35968 20-1356): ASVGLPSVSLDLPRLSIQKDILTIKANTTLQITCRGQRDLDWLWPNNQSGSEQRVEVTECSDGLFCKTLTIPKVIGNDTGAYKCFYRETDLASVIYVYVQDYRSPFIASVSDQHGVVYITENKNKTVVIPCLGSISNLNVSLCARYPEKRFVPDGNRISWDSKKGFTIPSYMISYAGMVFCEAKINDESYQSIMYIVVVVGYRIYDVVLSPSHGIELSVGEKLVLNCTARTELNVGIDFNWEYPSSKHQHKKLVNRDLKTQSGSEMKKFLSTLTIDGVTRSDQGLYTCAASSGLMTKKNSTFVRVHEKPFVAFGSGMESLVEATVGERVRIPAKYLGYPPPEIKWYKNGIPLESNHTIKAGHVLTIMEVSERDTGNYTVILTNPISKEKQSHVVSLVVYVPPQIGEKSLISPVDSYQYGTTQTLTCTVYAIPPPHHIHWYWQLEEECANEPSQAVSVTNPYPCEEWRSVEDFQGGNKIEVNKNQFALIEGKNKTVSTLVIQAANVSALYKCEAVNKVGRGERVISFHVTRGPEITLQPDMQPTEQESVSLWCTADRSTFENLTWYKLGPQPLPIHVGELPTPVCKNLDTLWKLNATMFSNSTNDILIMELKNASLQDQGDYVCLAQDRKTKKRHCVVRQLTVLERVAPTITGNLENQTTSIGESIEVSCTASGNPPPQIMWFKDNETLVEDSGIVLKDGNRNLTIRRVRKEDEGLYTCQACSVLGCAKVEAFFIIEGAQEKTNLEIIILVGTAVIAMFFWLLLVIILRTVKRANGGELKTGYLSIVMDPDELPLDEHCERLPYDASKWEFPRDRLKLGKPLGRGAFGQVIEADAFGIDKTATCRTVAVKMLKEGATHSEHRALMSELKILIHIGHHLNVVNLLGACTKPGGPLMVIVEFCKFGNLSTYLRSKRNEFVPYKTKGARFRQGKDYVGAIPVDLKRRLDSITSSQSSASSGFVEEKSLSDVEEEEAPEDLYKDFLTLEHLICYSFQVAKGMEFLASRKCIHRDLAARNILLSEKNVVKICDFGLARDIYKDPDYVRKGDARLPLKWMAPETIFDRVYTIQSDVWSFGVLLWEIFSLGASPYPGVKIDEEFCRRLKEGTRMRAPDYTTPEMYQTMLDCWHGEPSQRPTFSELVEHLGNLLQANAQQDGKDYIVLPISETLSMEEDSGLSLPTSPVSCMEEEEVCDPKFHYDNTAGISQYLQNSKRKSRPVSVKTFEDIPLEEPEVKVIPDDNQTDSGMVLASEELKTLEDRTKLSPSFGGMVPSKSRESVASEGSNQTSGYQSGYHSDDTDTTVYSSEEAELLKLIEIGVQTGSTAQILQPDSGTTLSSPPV
T2 sequence (P07949 29-1114): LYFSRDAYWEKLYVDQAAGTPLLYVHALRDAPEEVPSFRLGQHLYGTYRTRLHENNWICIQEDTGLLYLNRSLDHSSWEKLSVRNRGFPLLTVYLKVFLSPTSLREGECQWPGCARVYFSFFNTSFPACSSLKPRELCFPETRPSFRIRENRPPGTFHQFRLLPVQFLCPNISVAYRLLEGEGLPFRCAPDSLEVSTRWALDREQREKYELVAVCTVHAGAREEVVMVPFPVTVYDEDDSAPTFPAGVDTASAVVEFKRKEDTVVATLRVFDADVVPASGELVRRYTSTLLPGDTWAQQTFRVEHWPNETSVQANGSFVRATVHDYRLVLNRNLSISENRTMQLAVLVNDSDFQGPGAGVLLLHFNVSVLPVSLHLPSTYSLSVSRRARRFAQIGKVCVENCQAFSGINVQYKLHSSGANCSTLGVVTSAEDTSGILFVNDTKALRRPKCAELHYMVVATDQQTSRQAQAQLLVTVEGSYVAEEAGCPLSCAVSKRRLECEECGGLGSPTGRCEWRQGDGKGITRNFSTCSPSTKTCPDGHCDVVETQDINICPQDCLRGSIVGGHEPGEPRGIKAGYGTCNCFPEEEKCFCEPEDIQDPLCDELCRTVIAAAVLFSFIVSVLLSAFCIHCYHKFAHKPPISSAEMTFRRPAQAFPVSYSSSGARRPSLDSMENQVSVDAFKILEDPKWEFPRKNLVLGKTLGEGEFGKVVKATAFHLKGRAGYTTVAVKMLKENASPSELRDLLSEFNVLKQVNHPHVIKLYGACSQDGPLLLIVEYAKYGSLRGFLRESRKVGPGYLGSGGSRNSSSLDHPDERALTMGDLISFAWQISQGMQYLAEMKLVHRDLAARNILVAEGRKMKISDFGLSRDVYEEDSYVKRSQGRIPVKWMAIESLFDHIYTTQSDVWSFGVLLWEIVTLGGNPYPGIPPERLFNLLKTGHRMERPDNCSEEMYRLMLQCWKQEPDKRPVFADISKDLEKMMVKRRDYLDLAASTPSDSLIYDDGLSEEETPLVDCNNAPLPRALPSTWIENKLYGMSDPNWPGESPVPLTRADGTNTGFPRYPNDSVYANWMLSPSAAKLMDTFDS

In general, IC50 refers to the concentration that gives 50% inhibition. Regarding `CC(=O)NC12CC3CC(C1)N(c1ccc(-c4cc(OCC(C)(C)O)cn5ncc(C#N)c45)cn1)C(C3)C2` [Example 130, N-((1R,3S,5s,7s)-2-(5-(3-cyano-6-(2-hydroxy-2-methylpropoxy)pyrazolo[1,5-a]pyridin-4-yl)pyridin-2-yl)-2-azaadamantan-5-yl)acetamide], the values for the half-maximal inhibitory concentration (IC50) on human KDR kinase and against human RET kinase were greater than 100 nM and no more than 10 nM, respectively.

Consider `COc1ccc(C(=O)N[C@]2(C)C[C@H]3CN(c4ccc(-c5cc(-c6ccn(C)n6)cn6ncc(C#N)c56)cn4)C[C@H]3C2)cn1` [Example 122, N-((3aR,5s,6aS)-2-(5-(3-cyano-6-(1-methyl-1H-pyrazol-3-yl)pyrazolo[1,5-a]pyridin-4-yl)pyridin-2-yl)-5-methyloctahydrocyclopenta[c]pyrrol-5-yl)-6-methoxynicotinamide], for which the IC50 was 10 to 50 nM against human KDR kinase and no more than 10 nM on human RET kinase.

In the case of `Cn1cc(-c2cc(-c3ccc(N4C[C@@H]5[C@@H](CNC(=O)c6c(F)cccc6Cl)[C@@H]5C4)nc3)c3c(C#N)cnn3c2)cn1` [Example 187, 2-chloro-N-(((1R,5S,6s)-3-(5-(3-cyano-6-(1-methyl-1H-pyrazol-4-yl)pyrazolo[1,5-a]pyridin-4-yl)pyridin-2-yl)-3-azabicyclo[3.1.0]hexan-6-yl)methyl)-6-fluorobenzamide], the IC50 on human KDR kinase and on human RET kinase was no more than 10 nM in each case.

The molecule `COc1ccc(NC(=O)[C@H]2[C@@H]3CN(c4ccc(-c5cc(OCC(C)(C)O)cn6ncc(C#N)c56)cn4)C[C@@H]32)cn1` [Example 175, (1R,5S,6r)-3-(5-(3-cyano-6-(2-hydroxy-2-methylpropoxy)pyrazolo[1,5-a]pyridin-4-yl)pyridin-2-yl)-N-(6-methoxypyridin-3-yl)-3-azabicyclo[3.1.0]hexane-6-carboxamide] displayed an IC50 on human RET kinase of no more than 10 nM.

Consider `CCOc1cc(-c2ccc(N3C4CC5CC3CC(C(=O)Nc3ccc(OC)nc3)(C5)C4)nc2)c2c(C#N)cnn2c1` [Example 134, (1R3S,5s,7s)-2-(5-(3-cyano-6-ethoxypyrazolo[1,5-a]pyridin-4-yl)pyridin-2-yl)-N-(6-methoxypyridin-3-yl)-2-azaadamantane-5-carboxamide], for which the 50% inhibitory concentration (IC50) against human RET kinase was no more than 10 nM.

The molecule `COc1ccc(NC(=O)C23CC4CC(C2)N(c2cnc(-c5cc(-c6cnn(C)c6)cn6ncc(C#N)c56)cn2)C(C4)C3)cn1` [Example 114, (1R,3S,5s,7s)-2-(5-(3-cyano-6-(1-methyl-1H-pyrazol-4-yl)pyrazolo[1,5-a]pyridin-4-yl)pyrazin-2-yl)-N-(6-methoxypyridin-3-yl)-2-azaadamantane-5-carboxamide] displayed an IC50 against human RET kinase of no more than 10 nM.

(Values after patent US20220220128A1, “HETEROCYCLIC COMPOUNDS AS KINASE INHIBITORS, COMPOSITIONS COMPRISING THE HETEROCYCLIC COMPOUND, AND METHODS OF USE THEREOF” (JS Innopharm (Shanghai) Ltd, priority 2019, published 2022).)
